Assay results as given in patent US11912693B2, “Compounds for modulating S1P1 activity and methods of using the same” (TREVENA, INC., priority 2017, dated 2024).

Experiments:
[1] = target: T1, human sphingosine-1-phosphate receptor 1 (S1P1) (Homo sapiens (Human), UniProt P21453); assay: Inhibition of cAMP production (HTRF cAMP HiRange), S1P1 CHO-K1 cells; assay type: cell-based; conditions: for hS1P1 cAMP pEC50: inhibition of cAMP production, S1P1 CHO-K1 cells; for Emax: CHO-K1, efficacy (SPAN) normalized to fingolimod, read-out: hS1P1 cAMP SPAN
Method: (§1) Stable clonal Chinese hamster ovary K1 (CHO-K1) cells co-expressing EA-β-arrestin2 and the human sphingosine-1-phosphate receptor 1 (NM_001400, S1P1) with a C-terminal Prolink™ tag were purchased from DiscoverX corporation (Cat #: 93-0207C2).
(§2) Cell lines were cultured in AssayComplete™ Media 6 (DiscoverX Corporation, Cat #: 920018GF2) at 37° C. and 5% CO2 in a humidified CO2 and temperature-controlled incubator. To begin assay plating, cells were washed with dulbecco's phosphate buffered saline (CellGro, Cat #: 21-031-CV) and lifted from the culturing flask by incubation (37° C., 5 min) with CellStripper (Cellgro, Cat #: 25-056-CI). […] Plated cells were incubated overnight at 37° C. and 5% CO2 in a humidified CO2 and temperature-controlled incubator. Detecting Inhibition of cAMP Production
Agonist-promoted G-protein responses were determined by measuring changes in intracellular cAMP using the HTRF® cAMP HiRange kit (CisBio, Cat #: 62AM6PEJ) based on time-resolved fluorescence resonance energy transfer (TR-FRET) technology. […] Following a 30-minute incubation at 37° C. and 5% CO2 in a humidified CO2 and temperature-controlled incubator, the components of the cAMP HiRange kit were added as per the manufacturer's instructions. After an hour incubation at room temperature, plates were analyzed by a BMG PheraStar microplate reader.
(§3) The tables below include the efficacy of the compound as compared to a positive control, referred to as “SPAN”. These values are normalized to fingolimod, a known agonist of the sphingosine-1-phosphate 1 receptor. The tables also include potency values (pEC50) for modulating discrete receptor-mediated activities (inhibition of cAMP production and […] recruitment).
Target sequence in this assay (P21453 whole entry, looked up): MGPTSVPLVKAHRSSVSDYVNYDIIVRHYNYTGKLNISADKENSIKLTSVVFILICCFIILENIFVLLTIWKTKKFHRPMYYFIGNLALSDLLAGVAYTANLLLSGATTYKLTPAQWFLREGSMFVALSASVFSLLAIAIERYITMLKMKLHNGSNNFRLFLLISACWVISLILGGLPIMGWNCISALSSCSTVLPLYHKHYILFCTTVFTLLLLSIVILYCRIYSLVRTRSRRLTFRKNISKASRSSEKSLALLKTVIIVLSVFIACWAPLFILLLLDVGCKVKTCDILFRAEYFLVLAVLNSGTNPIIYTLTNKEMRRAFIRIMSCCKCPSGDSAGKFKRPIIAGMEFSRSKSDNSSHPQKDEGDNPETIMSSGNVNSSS

[2] = target: T1, human sphingosine-1-phosphate receptor 1 (S1P1); assay: β-Arrestin2 recruitment assay (PathHunter), S1P1 CHO-K1 cells; assay type: cell-based; conditions: for hS1P1 B-arrestin2 pEC50: β-arrestin2 recruitment, S1P1 CHO-K1 cells; for Emax: CHO-K1, efficacy (SPAN) normalized to fingolimod, read-out: hS1P1 B-arrestin2 SPAN
Method: as §1, §2
Target sequence in this assay (P21453 whole entry, looked up): as above
Target sequence in this assay (P32121 whole entry partner, looked up): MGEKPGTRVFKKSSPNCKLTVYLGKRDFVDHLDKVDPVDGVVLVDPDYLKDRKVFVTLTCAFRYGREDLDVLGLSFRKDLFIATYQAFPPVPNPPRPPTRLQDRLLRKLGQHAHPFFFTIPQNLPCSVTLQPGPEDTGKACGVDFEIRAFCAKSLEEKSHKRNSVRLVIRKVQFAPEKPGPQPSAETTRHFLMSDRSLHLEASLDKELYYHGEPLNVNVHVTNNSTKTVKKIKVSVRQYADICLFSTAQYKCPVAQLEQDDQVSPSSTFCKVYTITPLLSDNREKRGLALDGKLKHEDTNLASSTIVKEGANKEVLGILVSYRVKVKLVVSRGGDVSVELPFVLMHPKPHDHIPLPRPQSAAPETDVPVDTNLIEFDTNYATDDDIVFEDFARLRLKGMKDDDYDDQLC
Agonist-promoted β-arrestin2 recruitment to the sphingosine-1-phosphate 1 receptor was determined using the β-arrestin PathHunter®) Detection kit (DiscoverX Corporation, Cat #: 93-0001). […] In cells that stably express these fusion proteins, stimulation with a cognate agonist results in the interaction of […] and the Prolink™-tagged GPCR. This allows the complementation of the two β-galactosidase fragments and results in the formation of a functional enzyme with β-galactosidase activity. […] Following a 60 minute incubation at 37° C. and 5% CO2 in a humidified CO2 and temperature-controlled incubator, the components of the β-arrestin PathHunter® Detection kit were added as per the manufacturer's instructions. After an hour incubation at room temperature, plates were analyzed by a BMG PheraStar microplate reader.
as §3

hS1P1 cAMP pEC50 [1]	hS1P1 B-arrestin2 pEC50 [2]	Emax [1]	Emax [2]	Structure (SMILES)
<6.5	<5			CCC1(CC)CC(=O)c2cc(-c3nc(-c4ccc(S(=O)(=O)N(C)C)cc4)no3)ccc2O1 [Compound 30, 4-(5-(2,2-diethyl-4-oxochroman-6-yl)-1,2,4-oxadiazol-3-yl)-N,N-dimethylbenzenesulfonamide]
>6.5	>5	> 75%	> 75%	CCC1(CC)CC(=O)c2cc(-c3nc(-c4ccncc4C)no3)ccc2O1 [Compound 31, 2,2-diethyl-6-(3-(3-methylpyridin-4-yl)-1,2,4-oxadiazol-5-yl)chroman-4-one]
<6.5	>5			CCC1(CC)CC(=O)c2cc(-c3nc(-c4ccc(C)s4)no3)ccc2O1 [Compound 34, 2,2-diethyl-6-(3-(5-methylthiophen-2-yl)-1,2,4-oxadiazol-5-yl)chroman-4-one]
<6.5	<5			COc1ccccc1-c1nnc(-c2ccc3c(c2)nnn3C(C)C)o1 [Compound 35, 5-[5-(2-methoxyphenyl)-1,3,4-oxadiazol-2-yl]-1-(propan-2-yl)-1H-1,2,3-benzotriazole]
<6.5	<5	< 75%	< 75%	O=C1CC2(CCC(F)(F)CC2)Oc2ccc(-c3nc(-c4cccnc4)no3)cc21 [Compound 36, 4′,4′-difluoro-6-[3-(pyridin-3-yl)-1,2,4-oxadiazol-5-yl]-3,4-dihydrospiro[1-benzopyran-2,1′-cyclohexane]-4-one]
<6.5	<5			CC(C)n1nnc2cc(-c3ncc(-c4ccc(F)cc4)s3)ccc21 [Compound 37, 5-(4-fluorophenyl)-2-(1-isopropylbenzotriazol-5-yl)thiazole]
<6.5	<5	< 75%	> 75%	CCC1(CC)CC(=O)c2cc(-c3nc(-c4ccnc(OC)c4)no3)ccc2O1 [Compound 38, 2,2-diethyl-6-(3-(2-methoxypyridin-4-yl)-1,2,4-oxadiazol-5-yl)chroman-4-one]
<6.5	<5			C=CCn1nc2ccc(-c3nc(-c4ccccc4)no3)cc2n1 [Compound 39, 5-(3-phenyl-1,2,4-oxadiazol-5-yl)-2-(prop-2-en-1-yl)-2H-1,2,3-benzotriazole]
>6.5	>5			Brc1ccccc1-c1nc(-c2ccc3c(c2)nnn3C2CCCC2)no1 [Compound 40, 5-(2-bromophenyl)-3-(1-cyclopentyl-1H-benzo[d][1,2,3]triazol-5-yl)-1,2,4-oxadiazole]
<6.5	<5	< 75%	< 75%	O=C1CC2(CCCCC2)Oc2ccc(-c3nc(-c4cccnc4)no3)cc21 [Compound 41, 6-[3-(pyridin-3-yl)-1,2,4-oxadiazol-5-yl]-3,4-dihydrospiro[1-benzopyran-2,1′-cyclohexane]-4-one]
<6.5	<5			C=CCn1nnc2cc(-c3noc(-c4ccccc4Br)n3)ccc21 [Compound 42, 3-(1-allyl-1H-benzo[d][1,2,3]triazol-5-yl)-5-(2-bromophenyl)-1,2,4-oxadiazole]
>6.5	>5			CC(C)n1nnc2cc(-c3noc(-c4ccccc4Br)n3)ccc21 [Compound 43, 5-(2-bromophenyl)-3-(1-isopropyl-1H-benzo[d][1,2,3]triazol-5-yl)-1,2,4-oxadiazole]
<6.5	<5			Cc1nccnc1-c1nc(-c2ccc3c(c2)nnn3C(C)C)no1 [Compound 44, 3-(1-isopropyl-1H-benzo[d][1,2,3]triazol-5-yl)-5-(3-methylpyrazin-2-yl)-1,2,4-oxadiazole]
<6.5	<5			Brc1ccccc1-c1nc(-c2ccc3c(c2)nnn3Cc2ccccn2)no1 [Compound 45, 5-(2-bromophenyl)-3-(1-(pyridin-2-ylmethyl)-1H-benzo[d][1,2,3]triazol-5-yl)-1,2,4-oxadiazole]
>6.5	>5			Cc1ccsc1-c1noc(-c2ccc3c(c2)nnn3C2CCCC2)n1 [Compound 46, 1-cyclopentyl-5-[3-(3-methylthiophen-2-yl)-1,2,4-oxadiazol-5-yl]-1H-1,2,3-benzotriazole]
<6.5	<5			CSc1cccc(-c2nc(-c3ccc4c(c3)nnn4C3CCCC3)no2)c1 [Compound 47, 3-(1-cyclopentyl-1H-benzo[d][1,2,3]triazol-5-yl)-5-(3-(methylthio)phenyl)-1,2,4-oxadiazole]
<6.5	<5			Brc1ccccc1-c1nc(-c2ccc3c(c2)nnn3Cc2ccncc2)no1 [Compound 48, 5-(2-bromophenyl)-3-(1-(pyridin-4-ylmethyl)-1H-benzo[d][1,2,3]triazol-5-yl)-1,2,4-oxadiazole]
<6.5	<5			CC(C)n1nnc2cc(-c3nc(-c4ccc(COc5ccccc5)cc4)no3)ccc21 [Compound 49, 5-{3-[4-(phenoxymethyl)phenyl]-1,2,4-oxadiazol-5-yl}-1-(propan-2-yl)-1H-1,2,3-benzotriazole]
<6.5	<5	< 75%	< 75%	Cc1oc(-c2ccc3c(c2)nnn3C(C)C)nc1-c1ccc(Cl)cc1 [Compound 50, 5-[4-(4-chlorophenyl)-5-methyl-1,3-oxazol-2-yl]-1-(propan-2-yl)-1H-1,2,3-benzotriazole]
<6.5	<5			COc1cnc(-c2nc(-c3ccc4c(c3)nnn4C(C)C)no2)cn1 [Compound 51, 3-(1-isopropyl-1H-benzo[d][1,2,3]triazol-5-yl)-5-(5-methoxypyrazin-2-yl)-1,2,4-oxadiazole]
<6.5	<5			Brc1ccccc1-c1nc(-c2ccc3c(c2)nnn3Cc2ccccc2)no1 [Compound 52, 3-(1-benzyl-1H-benzo[d][1,2,3]triazol-5-yl)-5-(2-bromophenyl)-1,2,4-oxadiazole]
<6.5	<5	< 75%	< 75%	CC(C)n1nnc2cc(-c3nc(-c4ccc(OCc5ccccc5)cc4)no3)ccc21 [Compound 53, 5-{3-[4-(benzyloxy)phenyl]-1,2,4-oxadiazol-5-yl}-1-(propan-2-yl)-1H-1,2,3-benzotriazole]
<6.5	<5			CCCn1nnc2cc(-c3nc(-c4cccc(C)c4)no3)ccc21 [Compound 54, 5-[3-(3-methylphenyl)-1,2,4-oxadiazol-5-yl]-1-propyl-1H-1,2,3-benzotriazole]
<6.5	<5			CC(C)C(c1ccccc1)c1noc(-c2ccc3c(c2)nnn3C(C)C)n1 (stereo not shown) [Compound 56, 5-[3-(2-methyl-1-phenylpropyl)-1,2,4-oxadiazol-5-yl]-1-(propan-2-yl)-1H-1,2,3-benzotriazole]
<6.5	<5			O=C1CCOc2ccc(-c3nc(-c4ccncc4)no3)cc21 [Compound 57, 6-[3-(pyridin-4-yl)-1,2,4-oxadiazol-5-yl]-3,4-dihydro-2H-1-benzopyran-4-one]
<6.5	<5	< 75%	< 75%	CC1(C)CCC2(CC1)CC(=O)c1cc(-c3nc(-c4cccnc4)no3)ccc1O2 [Compound 58, 4′,4′-dimethyl-6-[3-(pyridin-3-yl)-1,2,4-oxadiazol-5-yl]-3,4-dihydrospiro[1-benzopyran-2,1′-cyclohexane]-4-one]
>6.5	>5	> 75%	> 75%	C=CCNc1ccc(-c2nc(-c3ccc4c(c3)CCC(=O)N4)no2)cc1C#N [Compound 61, 2-(allylamino)-5-(3-(2-oxo-1,2,3,4-tetrahydroquinolin-6-yl)-1,2,4-oxadiazol-5-yl)benzonitrile]
